Earlier results, collected in US8343966B2, “Organic compounds” (Novartis AG, priority 2008, dated 2013).

B1: Follistatin: an antagonist of activin signalling (protein, UniProt P19883 30-344, looked up)
Follistatin: GNCWLRQAKNGRCQVLYKTELSKEECCSTGRLSTSWTEEDVNDNTLFKWMIFNGGAPNCIPCKETCENVDCGPGKKCRMNKKNKPRCVCAPDCSNITWKGPVCGLDGKTYRNECALLKARCKEQPELEVQYQGRCKKTCRDVFCPGSSTCVVDQTNNAYCVTCNRICPEPASSEQYLCGNDGVTYSSACHLRKATCLLGRSIGLAYEGKCIKAKSCEDIQCTGGKKCLWDFKVGRGRCSLCDELCPDSKSDEPVCASDNATYASECAMKEAACSSGVLLEVKHSGSCNSISEDTEEEEEDEDQDYSFPISSILEW

Assays:
[1] = test system: dimethylnitrosamine induced liver fibrosis; conditions: cited from earlier work
[2] = test system: bleomycin-treated rats; conditions: cited from earlier work
[3] = given therapeutically to rat, 3 weeks treatment

Molecule | side effects ([1]; during the 3 weeks treatment) | inhibition of extracellular matrix deposition [1, 3] [%] | prevented death rate [1, 3] [%] | lung fibrosis [2] | number of macrophages and neutrophils in bronchoalveolar lavage [2]
c1ccc(-c2cc(-c3cn[nH]c3-c3ccccn3)ccn2)cc1 [GW6604] | no obvious side effects | 60 | 40 | – | –
B1 | – | – | – | attenuated | significantly reduced
